Converted amounts (≈) assume the structure as drawn. “And” between values parts separate entries of the source, which are not always exact repeats. Identical values can stand only once. One block for each compound: values may come before it.
Assays:
Test in all cases: ≥ marks a high value that may be exact or a test limit, other limits are often not marked, values filed in µg/mL are converted to µM
[1] = tested on: Bacillus subtilis ATCC 6051
[2] = tested on: Bacillus licheniformis ATCC 14580
[3] = tested on: Bacillus amyloliquefaciens ATCC 23842
[4] = tested on: Pseudomonas aeruginosa PAO1
[5] = tested on: Staphylococcus aureus ATCC 29213
[6] = tested on: Escherichia coli ATCC 25922
[7] = tested on: Bacillus cereus ATCC 14579
[8] = tested on: Enterococcus faecium 4W-9
Enterococcus faecalis A4 = tested on: Enterococcus faecalis A4
[9] = tested on: Enterococcus faecium 5F-10
[10] = tested on: Salmonella enterica ATCC H9812
[11] = tested on: Proteus mirabilis ATCC 35659
Staphylococcus aureus MR = tested on: Staphylococcus aureus MR
[12] = tested on: Staphylococcus aureus 215
[13] = tested on: Enterococcus faecalis 1F-1
[14] = tested on: Bacillus subtilis ATCC 6633
[15] = tested on: Enterococcus faecium ATCC 19434
[16] = tested on: Pseudomonas aeruginosa ATCC 27853
[17] = tested on: Proteus mirabilis CCUG 26767
[18] = tested on: Enterococcus faecalis ATCC 19433
[19] = tested on: Salmonella enterica subsp. enterica serovar Typhimurium LT2
[20] = tested on: Klebsiella pneumoniae ATCC 13883
[21] = tested on: Staphylococcus epidermidis ATCC 12228
[22] = tested on: Salmonella enterica subsp. enterica serovar Typhimurium C77-31
Escherichia coli UB1005 = tested on: Escherichia coli UB1005
Escherichia coli 078 = tested on: Escherichia coli 078
Escherichia coli K88 = tested on: Escherichia coli K88
[23] = tested on: Salmonella enterica subsp. enterica serovar Typhimurium ATCC 14028
[24] = tested on: Candida parapsilosis CGMCC 2.3989
[25] = tested on: Lactiplantibacillus plantarum 8014
Escherichia coli 987P = tested on: Escherichia coli 987P
[26] = tested on: Lacticaseibacillus rhamnosus 7469
Escherichia coli K99 = tested on: Escherichia coli K99
[27] = tested on: Candida tropicalis CGMCC 2.1975
[28] = tested on: Staphylococcus aureus ATCC 25923
[29] = tested on: Candida albicans CGMCC 2.2086
Escherichia coli ESBL = tested on: Escherichia coli ESBL
Staphylococcus aureus = tested on: Staphylococcus aureus
Bacillus subtilis 168 = tested on: Bacillus subtilis 168
Escherichia coli BL21 = tested on: Escherichia coli BL21
[30] = tested on: Acinetobacter baumannii KCTC 2508
[31] = tested on: Bacillus subtilis KCTC 2217
[32] = tested on: Staphylococcus aureus ATCC 6538
[33] = tested on: Staphylococcus aureus ATCC 8325-4
[34] = tested on: Streptococcus sanguinis ATCC 10556
[35] = tested on: Candida albicans ATCC 5314
[36] = tested on: Streptococcus mutans ATCC UA159

MIC [1]: ≥ 154 µM
MIC [2]: ≥ 154 µM
MIC [3]: ≥ 154 µM
MIC [4]: 154 µM (≈ 134 µg/mL)
MIC [5]: 38.6 µM (≈ 33.6 µg/mL)
MIC [6]: 77.1 µM (≈ 67.2 µg/mL)
MIC [7]: ≥ 154 µM
MIC [8]: ≥ 154 µM
MIC (Enterococcus faecalis A4): ≥ 154 µM
MIC [9]: ≥ 154 µM
MIC [10]: ≥ 154 µM
MIC [11]: ≥ 154 µM
MIC (Staphylococcus aureus MR): ≥ 38.6 µM
MIC [12]: ≥ 38.6 µM
MIC [13]: ≥ 154 µM
SMILES: CC(=O)N[C@@H](CCC(=O)O)C(=O)N[C@@H](CC(C)C)C(=O)N[C@@H](CC(C)C)C(=O)N[C@@H](CO)C(=O)N[C@@H](CCCN=C(N)N)C(=O)N[C@H](C(=O)N[C@@H](CC(N)=O)C(=O)O)C(C)C [ELLSRVN]

MIC [14]: ≥ 47.9 µM
MIC [15]: 23.9 µM (≈ 37.5 µg/mL)
MIC [5]: 191 µM (≈ 300 µg/mL)
MIC [16]: > 383 µM
MIC [17]: ≥ 383 µM
MIC [6]: 23.9 µM (≈ 37.5 µg/mL)
MIC [18]: 23.9 µM (≈ 37.5 µg/mL)
MIC [19]: ≥ 47.9 µM
MIC [20]: ≥ 47.9 µM
SMILES: CC[C@H](C)[C@H](NC(=O)[C@H](CCCCN)NC(=O)[C@@H]1CCCN1C(=O)[C@H](CC(C)C)NC(=O)[C@@H](N)Cc1ccccc1)C(=O)N[C@@H](CC(C)C)C(=O)N[C@@H](CCCN=C(N)N)C(=O)N[C@@H](CCCCN)C(=O)N[C@H](C(=O)N[C@H](C(=O)N[C@@H](CCCN=C(N)N)C(=O)N[C@@H](C)C(=O)N[C@@H](CC(C)C)C(N)=O)C(C)C)[C@@H](C)CC [FLPKILRKIVRAL]

MIC [21]: > 64 µM
MIC [22]: ≥ 64 µM
MIC (Escherichia coli UB1005): ≥ 64 µM
MIC (Escherichia coli 078): ≥ 64 µM
MIC (Escherichia coli K88): ≥ 64 µM
MIC [4]: > 64 µM
MIC [23]: > 64 µM
MIC [24]: ≥ 64 µM
MIC [5]: > 64 µM
MIC [16]: > 64 µM
MIC [6]: > 64 µM
MIC (Escherichia coli 987P): ≥ 64 µM
MIC [26]: ≥ 64 µM
MIC (Escherichia coli K99): ≥ 64 µM
MIC [27]: ≥ 64 µM
MIC [28]: > 64 µM
MIC [29]: ≥ 64 µM
SMILES: CC[C@H](C)[C@H](N)C(=O)N[C@@H](Cc1cnc[nH]1)C(=O)N[C@@H](Cc1cnc[nH]1)C(=O)N[C@H](C(=O)N[C@@H](Cc1cnc[nH]1)C(=O)N[C@@H](Cc1cnc[nH]1)C(=O)N[C@H](C(N)=O)[C@@H](C)CC)[C@@H](C)CC [IHHIHHI]
MIC [25]: ≥ 64 µM

MIC (Escherichia coli ESBL): 12 µM (≈ 18.9 µg/mL)
MIC (Staphylococcus aureus): 7.5 µM (≈ 11.8 µg/mL)
MIC (Bacillus subtilis 168): 5 µM (≈ 7.89 µg/mL)
MIC (Escherichia coli BL21): 2.5 µM (≈ 3.95 µg/mL)
SMILES: CC[C@H](C)[C@H](N)C(=O)N[C@H](C(=O)N[C@@H](CCCCN)C(=O)N[C@@H](CCCCN)C(=O)N[C@H](C(=O)N[C@H](C(=O)N[C@@H](CCCCN)C(=O)N[C@@H](CCCCN)C(=O)N[C@H](C(=O)N[C@H](C(=O)N[C@@H](CCCCN)C(=O)N[C@@H](CCCCN)C(=O)N[C@H](C(N)=O)[C@@H](C)CC)[C@@H](C)CC)[C@@H](C)CC)[C@@H](C)CC)[C@@H](C)CC)[C@@H](C)CC [IIKKIIKKIIKKI]

MIC [30]: 3.13 µM (≈ 6.27 µg/mL)
MIC [31]: 1.56 µM (≈ 3.13 µg/mL)
MIC [28]: 1.56 µM and > 0.78 µM
SMILES: CC(C)C[C@H](NC(=O)[C@H](CC(C)C)NC(=O)[C@H](CCCCN)NC(=O)[C@H](CCCCN)NC(=O)[C@H](CC(C)C)NC(=O)[C@H](CC(C)C)NC(=O)[C@@H]1CCCN1C(=O)[C@H](CCCCN)NC(=O)[C@H](CCCCN)NC(=O)[C@H](CC(C)C)NC(=O)[C@H](CC(C)C)NC(=O)[C@H](CCCCN)NC(=O)[C@H](CCCCN)NC(=O)[C@H](Cc1c[nH]c2ccccc12)NC(=O)[C@@H](N)CCCCN)C(=O)N[C@@H](CCCCN)C(N)=O [KWKKLLKKPLLKKLLK]

MIC [32]: 12.5 µM (≈ 32 µg/mL)
MIC [33]: 6.25 µM (≈ 16 µg/mL)
MIC [34]: 25 µM (≈ 64 µg/mL)
MIC [5]: 12.5 µM (≈ 32 µg/mL)
MIC (Staphylococcus aureus): 6.25 µM (≈ 16 µg/mL)
MIC [35]: 25 µM (≈ 64 µg/mL)
MIC (Staphylococcus aureus MR): 12.5 µM (≈ 32 µg/mL)
MIC [28]: 12.5 µM (≈ 32 µg/mL)
MIC [36]: 25 µM (≈ 64 µg/mL)
SMILES: CC[C@H](C)[C@H](NC(=O)[C@H](CCCCN)NC(=O)[C@H](CCCN=C(N)N)NC(=O)[C@H](CCC(=O)O)NC(=O)[C@H](Cc1ccc(O)cc1)NC(=O)[C@@H](N)CO)C(=O)N[C@@H](CC(N)=O)C(=O)N[C@@H](CCCN=C(N)N)C(=O)N[C@@H](Cc1cnc[nH]1)C(=O)N[C@@H](Cc1ccccc1)C(=O)N[C@@H](CCCCN)C(=O)N[C@H](C(=O)N[C@@H](CC(C)C)C(=O)N[C@@H](CCCCN)C(=O)N[C@@H](CCCCN)C(=O)N[C@@H](CC(N)=O)C(=O)N[C@@H](CC(C)C)C(=O)N[C@@H](CCCCN)C(=O)N[C@@H](CCCCN)C(=O)N[C@@H](CCCCN)C(N)=O)[C@@H](C)O [SYERKINRHFKTLKKNLKKK]

Source: DBAASP
